# Laboratory results from US11634452B2, “Compounds for treating neurodegenerative disorders” (ETHNODYNE, priority 2017, dated 2023).
# Legend:
# [1] = tested on: primary cocultures of central neurons and oligodendrocytes; assay: In vitro MS (myelination) model; format: cell-based, rat
# Method: A reproducible in vitro myelination model based on primary cocultures of central neurons and oligodendrocytes culturing in 96-well plate is used and adapted to high throughput screening.
# Neurons/oligodendrocytes were cultured as previously described by Charles et al., 2000. PNAS 97 7585-7590.
# Briefly, pregnant Wistar female rats of 17 days gestation were killed by cervical dislocation (Janvier Labs, France) and the foetuses removed from the uterus. The forebrains were removed and placed in ice-cold medium of Leibovitz (L15; Pan Biotech, Germany) containing 2% of Penicillin-Streptomycin (Batch 1451013, PanBiotech) and 1% of bovine serum albumin (BSA) (Batch K180713, Pan Biotech). Cortexes were dissociated by trypsinisation for 20 min at 37° C., with Trypsin EDTA 1× (Batch 7310713, PanBiotech). The reaction was stopped by the addition of Dulbecco's modified Eagle's medium (DMEM) (Batch 9710913, PanBiotech) containing DNAase I grade II at 0.1 mg/mL (Batch H131108, PanBiotech) and 10% of foetal calf serum (Batch 41Q7218K, Invitrogen, France). Cells were then mechanically dissociated by 3 passages through a 10 mL pipette. Cells were centrifuged at 180×g for 10 min at 4° C. temperature on a layer of BSA (3.5%) in L15 medium. The supernatant was discarded and cells of the pellet were re-suspended in DMEM containing 10% of FCS. […] The supernatant was discarded and cells of pellet were re-suspended in a culture medium consisting of Neurobasal (Batch 1625353, Invitrogen) supplemented with 2% of B27 (Batch 1618508, Invitrogen), 2 mM of L-glutamine (Batch 6620314, PanBiotech), 2% of PS solution, 1% of foetal calf serum (FCS) and 10 ng/mL of platelet-derived growth factor (PDGF-AA) (Batch H131205, PanBiotech).
# The plates were maintained at 37° C. in a humidified incubator, in an atmosphere of air (95%)-CO2 (5%). Half of the medium was changed every 2 days with fresh medium in presence or absence of compound.
# Plate 1 for Day 12 (A2B5) and plate 2 for Day 18 (MAG evaluation) • Control (vehicle) • Compound CR777 of example 1 (1 pmol/L) • Compound CR777 of example 1 (10 pmol/L) • Compound CR777 of example 1 (100 pmol/L) • Compound CR777 of example 1 (1 nmol/L) • Compound CR777 of example 1 (10 nmol/L) • Compound CR777 of example 1 (100 nmol/L) • Compound CR777 of example 1 (1 μmol/L) • Compound CR777 of example 1 (10 μmol/L)
# The cells were then permeabilized and non-specific sites were blocked with a solution of phosphate buffered saline (Batch 3010914, PanBiotech) containing 0.1% of saponin (Batch BCBJ8417V, Sigma) and 1% FCS for 15 min at room temperature.
# On day 12, cells were incubated with Monoclonal Anti-A2B5 conjugated Alexa Fluor® 488 produced in mouse (Batch 2281669, Millipore, France) at dilution of 1/200 in PBS containing 1% FCS, 0.1% saponin, and with anti-MAP-2 antibody produced in chicken (Batch GR180541-3, AbCam; United Kingdom) at dilution of 1/1000 in PBS containing 1% FCS, 0.1% saponin for 2 h at room temperature. […]
# The immunolabeled cultures were automatically examined with ImageXpress (Molecular Devices) equipped with a LED at ×20 magnification. […] Number of A2B5 positive cells and number of MAG positive cells were automatically analyzed by using Custom module editor (Molecular Devices). […] All values were expressed as mean+/−SEM (s.e.mean) of the 6 wells. […]
# [2] = tested on: human HCT-116 colorectal carcinoma; assay: Cytotoxicity test, cell growth inhibition by MTS assay; format: cell-based; details: HCT-116, 72 h incubation, 8 concentrations
# Method: (§1) Human MRC-5 cell line derived from normal lung tissue and human HCT-116 colorectal carcinoma were obtained from the American Type Culture Collection (ATCC, Rockville, Md.). Primary Human Umbilical Vein Endothelial Cells (HUVEC) isolated from the vein of the umbilical cord were obtained from Promocell (Germany). Cell lines were cultured according to the supplier's instructions. Human HCT-116 cells were grown in Gibco McCoy's 5A supplemented with 10% fetal calf serum (FCS) and 1% glutamine. Human MRC-5 cells were grown in DMEM supplemented with 10% fetal calf serum (FCS) and 1% glutamine. HUVECs were grown in Endothelial Cell Growth Medium 2 which is low-serum (2% V/V) media optimized for the cultivation of endothelial cells from large blood vessels.
# (§2) Cells were counted using a Vi-cell XR (Beckman Coulter) and their viability assessed by 0.25% trypan blue dye exclusion. They were tested for the presence of mycoplasma before experiments with the Mycoplasma PCR Detection Kit (Applied Biological Materials Inc., Canada) in accordance with the manufacturer instructions and only mycoplasma-free cells were used for further investigations.
# (§3) Cell lines were maintained at 37° C. in a humidified atmosphere containing 5% CO2. Cell growth inhibition was determined by an MTS assay according to the manufacturer's instructions (Promega, Madison, Wis., USA). […] After 24 h of culture, the cells were treated with the compound CR777 of example 1 at 8 different final concentrations. Each concentration was obtained from serial dilutions in culture medium starting from the stock solution. Control cells were treated with the vehicle. Experiments were performed in triplicate.
# (§4) After 72 h of incubation, 20 μL of CellTiter 96® AQueous One Solution Reagent was added for 2 h before recording absorbance at 490 nm with a spectrophotometric plate reader. The dose-response curves were plotted with Graph Prism software and the IC50 values were calculated using the Graph Prism software from polynomial curves (four or five-parameter logistic equations).
# [3] = tested on: Human MRC-5 cell line derived from normal lung tissue; assay: as above; format: cell-based; details: MRC-5, 72 h incubation, 8 concentrations
# Method: as §1, §2, §3, §4
# [4] = tested on: Primary Human Umbilical Vein Endothelial Cells (HUVEC); assay: as above; format: cell-based; details: 72 h incubation, 8 concentrations
# Method: as §1, §2, §3, §4
# [5] = 18 days of treatment, significant from 1 pmol/L up to 1 μmol/L, not at 10 μM
structure (smiles),measurement,setting,value
CC1=C(CO)C(=O)O[C@@H]([C@@H](C)[C@H]2CCC3C4C[C@H](SC[C@H](NC(=O)CC[C@@H](N)C(=O)O)C(=O)NCC(=O)O)[C@]5(O)[C@@H](O)C=CC(=O)[C@]5(C)C4CC[C@@]32C)C1 (some centres unmarked) [CR777],"OPC (precursor cells of oligodendrocytes) number, A2B5 positive cells","[1]; 12 days treatment, 1 pmol/L to 10 μmol/L",did not show any significant increase
same,total number of OPCs,"[1]; 12 days treatment, at the highest doses",decrease of the total number of OPCs
same,"maximal effect on MAG, increase vs control","[1]; 18 days of treatment, all doses",~60%
same,myelination of neurons by OL (area of MAG expression),[1]; [5],significantly improved
same,number of MAG positive cells (OL),[1]; [5],able to increase the number of MAG positive cells
same,"toxicity (cell growth inhibition, MTS)",[2],does not show any toxicity
same,"toxicity (cell growth inhibition, MTS)",[3],does not show any toxicity
same,"toxicity (cell growth inhibition, MTS)",[4],does not show any toxicity
